# In publication PMC7567880 (Scientific Reports, 2020):
# Like-named read-outs stand apart in the source and are kept apart here.
# Columns and labels:
# [1] = tested on: P. viticola cellulose synthase 2 (PvCesA2), cytoplasmic portion aa 331 to 790; assay type: binding, Plasmopara viticola; conditions: growth on selective media lacking adenine or histidine, 10 mM 3-AT; sequence found at least three times among 30 colonies
# Plasmopara viticola [2] = assay type: cell-based; conditions: 5 and 7 dpi; for effect on P. viticola disease severity on leaf disks: 200 μM peptide co-inoculated with sporangia, Pinot noir leaf disks, ten replicates from two experiments
# [3] = tested on: Agrobacterium tumefaciens; assay type: cell-based; conditions: 100 μM and 200 μM in LB medium, 28 °C, OD600 every hour for 5 h, three biological replicates
# [4] = tested on: Plasmopara viticola zoospores; assay type: cell-based; conditions: 200 μM, leaf disks, 6 h in the dark at 22 °C, SEM
# Escherichia coli = assay type: cell-based; conditions: 100 μM and 200 μM in LB medium, 37 °C, OD600 every hour for 5 h, three biological replicates
# [5] = tested on: Pinot noir leaves, photosystem II; conditions: grapevine leaves, 7 days after treatment, average ± SD of 3 measurements
# Plasmopara viticola [6] = assay type: in vivo; conditions: for disease severity of plants: average ± standard error
# HKC8 cells = conditions: 400 μM, HKC8 at 1 K, 3 K and 6 K cells/100 μl, four biological replicates
# [7] = tested on: Bacillus amyloliquefaciens (subsp. plantarum) strain D 747; assay type: cell-based; conditions: 100 μM and 200 μM in LB medium, 37 °C, OD600 every hour for 5 h, three biological replicates
# Plasmopara viticola [8] = assay type: cell-based
# Phytophthora infestans = assay type: cell-based; conditions: 100 μM and 200 μM in pea agar medium, 20 °C, radial growth at 4, 5 and 7 dpi
# Erysiphe necator = assay type: cell-based; conditions: 200 μM and 400 μM, young grapevine leaves, 14 dpi
substance,measurement,setting,value
"H-LFPFVSSM-OH [NoPv2, 8 a.a. peptide aptamer identified by yeast two-hybrid assay using PvCesA2 as bait]",peptide aptamers interacting with PvCesA2 (yeast two-hybrid library screening),[1],interacting with PvCesA2
same,effect on P. viticola disease severity on leaf disks,Plasmopara viticola [2],intermediate
"H-MLLHSELC-OH [NoPv3, 8 a.a. peptide aptamer identified by yeast two-hybrid assay using PvCesA2 as bait]",peptide aptamers interacting with PvCesA2 (yeast two-hybrid library screening),[1],interacting with PvCesA2
same,effect on P. viticola disease severity on leaf disks,Plasmopara viticola [2],no effect
"H-RLTAQCRL-OH [NoPv1, peptide aptamer of 8 L-amino acid residues, RLTAQCRL, isolated with PvCesA2 as bait]",growth inhibition of A. tumefaciens,[3],not able to inhibit the growth
same,zoospores in which a germ tube primordium could be detected,[4]; 5 zoospores out of 160,3.12%
same,P. viticola germ tube formation,[4]; n = 160,unable to develop any germ tube
same,peptide aptamers interacting with PvCesA2 (yeast two-hybrid library screening),[1],interacting with PvCesA2
same,growth inhibition of E. coli,Escherichia coli,not able to inhibit the growth
same,"FV/FM, maximum quantum yield of photosystem II",[5]; 400 µM (P1),0.73 ± 0.01
same,"Y(II), effective quantum yield of photosystem II",[5]; 400 µM (P1),0.33 ± 0.02
same,"FV/FM, maximum quantum yield of photosystem II",[5]; 1 mM (P2),0.74 ± 0.01
same,"Y(II), effective quantum yield of photosystem II",[5]; 1 mM (P2),0.33 ± 0.01
same,disease severity of plants,"Plasmopara viticola [6]; 400 μM sprayed immediately before P. viticola inoculation, greenhouse Pinot noir plants",27.3 ± 5.2%
same,disease severity of plants,"Plasmopara viticola [6]; 800 μM sprayed immediately before P. viticola inoculation, greenhouse plants",26.2 ± 4.2%
same,NoPv1 efficacy compared to control plants,"Plasmopara viticola [6]; 1 mM applied at -7 d, -2 d and 0 h, greenhouse plants, 7 dpi",higher than 60%
same,Disease severity,"Plasmopara viticola [6]; 1 mM sprayed -7 d before inoculation, greenhouse plants, 7 dpi, mean of ten replicates from two experiments",15.89%
same,disease severity of plants,"Plasmopara viticola [6]; 1 mM sprayed immediately before P. viticola inoculation, greenhouse plants",20.8 ± 2.4%
same,disease severity of plants,"Plasmopara viticola [6]; 2 mM sprayed immediately before P. viticola inoculation, greenhouse plants",21.1 ± 4.2
same,lowest concentration showing a P. viticola severity comparable to the copper treatment,"Plasmopara viticola [6]; greenhouse plants, sprayed immediately before inoculation",1 mM
same,"cell viability (MTT, absorbance at 570 nm) vs control","HKC8 cells; DMEM-F12, 24 h",No significant differences between control and treated samples
same,"cell viability (MTT, absorbance at 570 nm) vs control","HKC8 cells; DMEM-F12, 48 h",cytotoxic effects could only be observed at 1 K cell density
same,growth inhibition of B. amyloliquefaciens,[7],not able to inhibit the growth
same,"treatment efficacy, preventive application","Plasmopara viticola [8]; 400 μM applied 7 days before inoculation (-7 d), leaf disks",effective in suppressing P. viticola infection
same,"treatment efficacy, post-inoculation (curative) application","Plasmopara viticola [8]; 400 μM applied +1 h to +2 d after P. viticola inoculation, leaf disks",efficacy decreased very rapidly
same,Disease severity,"Plasmopara viticola [8]; 400 μM sprayed +1 h after inoculation, leaf disks, 7 dpi, mean of ten replicates",18.00%
same,Disease severity,"Plasmopara viticola [8]; 400 μM sprayed +1 d after inoculation, leaf disks, 7 dpi, mean of ten replicates",23.76%
same,Disease severity,"Plasmopara viticola [8]; 400 μM sprayed +2 d after inoculation, leaf disks, 7 dpi, mean of ten replicates",36.00%
same,Disease severity,"Plasmopara viticola [8]; 400 μM sprayed -2 h before inoculation, leaf disks, 7 dpi, mean of ten replicates",1.58%
same,Disease severity,"Plasmopara viticola [8]; 400 μM sprayed -6 h before inoculation, leaf disks, 7 dpi, mean of ten replicates",5.62%
same,Disease severity,"Plasmopara viticola [8]; 400 μM sprayed -1 d before inoculation, leaf disks, 7 dpi, mean of ten replicates",6.17%
same,Disease severity,"Plasmopara viticola [8]; 400 μM sprayed -2 d before inoculation, leaf disks, 7 dpi, mean of ten replicates",3.96%
same,Disease severity,"Plasmopara viticola [8]; 400 μM sprayed -5 d before inoculation, leaf disks, 7 dpi, mean of ten replicates",2.23%
same,Disease severity,"Plasmopara viticola [8]; 400 μM sprayed -7 d before P. viticola inoculation, leaf disks, 7 dpi, mean of ten replicates from two experiments",9.72%
same,P. viticola severity on leaf disks after nebulization,"Plasmopara viticola [8]; 400 μM, Potter Precision Spray Tower, 7 dpi",reduction of P. viticola severity
same,Disease severity,"Plasmopara viticola [8]; 400 μM, co-inoculation 0 h, leaf disks, 7 dpi, mean of ten replicates",2.88%
same,efficacy on leaf disks after nebulization compared with copper fungicide,"Plasmopara viticola [8]; 800 μM vs Kocide 2000 1.42 g l^-1, Potter Precision Spray Tower",as effective as the copper-based fungicide Kocide 2000
same,lowest concentration that maximises the efficacy against P. viticola,"Plasmopara viticola [8]; nebulization on leaf disks, Potter Precision Spray Tower",400 µM
same,inhibition of P. infestans growth in vitro,Phytophthora infestans,able to inhibit P. infestans growth in vitro
same,effect on P. viticola disease severity on leaf disks,Plasmopara viticola [2],completely inhibit
same,anti-oomycete activity on leaf disks,"Plasmopara viticola [2]; co-inoculation, 20 μM",no anti-oomycete activity
same,P. viticola disease severity on leaf disks,"Plasmopara viticola [2]; co-inoculation, 50 μM",almost half of the control sample
same,percentage of leaf disk area covered by P. viticola sporulation,"Plasmopara viticola [2]; co-inoculation, concentrations equal or higher than 100 μM",below 10%
same,effect on E. necator disease severity on leaves,Erysiphe necator,not able to reduce the disease severity on leaves
